Laboratory results reported in PMC9173784 (Proceedings of the National Academy of Sciences of the …, 2022).

How the values were obtained:
GALRs [1] = conditions: cited from earlier work
GALR1 V274G (human) = GALR1 V274G (human) (UniProt P47211)
[2] = target: GALR1 Q92^2.61 to alanine (human) (UniProt P47211)
GALR2 R184^5.35A (human) = GALR2 R184^5.35A (human) (UniProt O43603)
GALR2 F271^7.32A (human) = GALR2 F271^7.32A (human) (UniProt O43603)
[3] = target: GALR2 Q82^2.61 to alanine (human) (UniProt O43603)
[4] = target: GALR1 F275 mutant (human) (UniProt P47211)
[5] = target: GALR2 F264 mutant (human) (UniProt O43603)
GALR2 [6] = assay: Zn2+ inhibition assay, NanoBiT; type: cell-based, human; conditions: HEK-293T cells, pH 7.3
GALR1 [7] = assay: Zn2+ inhibition assay, NanoBiT; type: cell-based, human
NMAR receptors = conditions: cited from earlier work
[8] = tested on: ionotropic glutamate AMPA receptors; conditions: cited from earlier work
GALRs [9] = conditions: cited from earlier work; remark: listed apart in the source
GALR2 with ICL3 of GALR1 = assay: GALR2-Go coupling with ICL3 substitution; type: cell-based, human; conditions: ICL3 (214 to 225) of GALR2 replaced by GALR1 residues
GALR1 and its mutants = assay: NanoBiT mini-Go recruitment assay; type: cell-based, human
GALR2 [10] = assay: NanoBiT assay, GALR2-Gαs coupling; type: cell-based, human; conditions: E(-3) in Gαs substituted with the equivalent Gαq residue
GALR3 [11] = conditions: mutation of equivalent residue F263 in GALR3; cited from earlier work
GALR2 or mutants = assay: IP1 accumulation assay; type: cell-based, human; conditions: HEK-293T cells, 1 h
GALR2 and its mutants = assay: NanoBiT mini-Gq recruitment assay; type: cell-based, human; conditions: mutations of conserved TM3/TM5/TM6 residues in GALR2
GALR1 [12] = conditions: cited from earlier work
GALR2 [13] = conditions: cited from earlier work
GALR1 or mutants = assay: cAMP inhibition assay; type: cell-based, human; conditions: CHO cells
GALR2 [14] = assay: GALR2-Gq coupling of ICL2 and TM5 mutants; type: cell-based, human; conditions: L^5.65A mutation in GALR2
GALR2 [15] = conditions: specific for GALR2 and GALR3; cited from earlier work
GALR3 [16] = conditions: specific for GALR2 and GALR3; cited from earlier work
[17] = S235^ICL3 and K237^ICL3 mutations in GALR1

N-terminal region of galanin ([1]–[16]): N-terminal region of galanin
binding affinity for the receptors relative to full-length galanin (GALRs [1]): comparable to the full-length galanin

galanin peptide 1 through 30
fold reduction of agonist potency, cAMP inhibition assay (GALR1 V274G (human)): 370 fold | fold reduction of galanin potency, cAMP inhibition assay [2]: 100 fold | fold reduction of galanin potency, IP1 accumulation assay (GALR2 R184^5.35A (human)): 10 fold | fold reduction of galanin potency, IP1 accumulation assay (GALR2 F271^7.32A (human)): 100 fold | fold reduction of galanin potency, IP1 accumulation assay [3]: 100 fold | fold reduction of galanin potency, cAMP inhibition assay [4]: 100 fold | fold reduction of galanin potency, IP1 accumulation assay [5]: 100 fold

[Zn+2] [Zn^2+, ZnCl2]
effect on galanin-induced GALR2 activation (GALR2 [6]; below millimolar Zn2+): little effect | Zn2+ concentration at which galanin activation of GALR2 is diminished (GALR2 [6]; galanin-induced, above the physiological concentration): millimolar range | character of Zn2+ inhibition (GALR1 [7]; 1 μM galanin, wild-type GALR1, HEK-293T cells, pH 7.3): saturable or has a “ceiling” level | effect of mutation on zinc inhibition (GALR1 [7]; GALR1 H112^3.29A, 1 μM galanin, HEK-293T cells): little influence | effect of mutation on zinc inhibition (GALR1 [7]; GALR1 H263^6.51F, 1 μM galanin, HEK-293T cells): little influence | effect of mutation on zinc inhibition (GALR1 [7]; GALR1 H264^6.52F, 1 μM galanin, HEK-293T cells): little influence | effect on galanin concentration-response curve (GALR1 [7]; H267^6.55A mutant of GALR1, HEK-293T cells): little effect | allosteric modulation of GALR1 (GALR1 [7]; conclusion from NanoBiT assay, listed as zinc ion): negative allosteric regulator | effect on NMDA receptors (NMAR receptors): inhibits | inhibition of galanin binding to the receptors (GALRs [1]): can inhibit galanin binding | effect on AMPA receptors [8]: inhibits

galanin-like peptide (GALP): endogenous galanin-like peptide (APAHRGRGGWTLNSAGYLLGPVLHLPQMGDQDGKRETALEILDLWKAIDGLPYSHPPQPS; Galanin-like peptide; UniProt Q9UBC7 25-84, looked up)
activation of GALRs (GALRs [9]): activate GALRs

galanin: 29- or 30-amino acid peptide, endogenous ligand; galanin peptide 1 through 30 (MedChemExpress)
ability of GALR2 to bind Go (GALR2 with ICL3 of GALR1): acquired the ability to bind Go | binding affinity for GALRs (GALRs [1]): subnanomolar range | effect of mutation on galanin maximum response (GALR1 and its mutants; [17]): dramatically reduced | effect of mutation on galanin potency (GALR1 and its mutants; [17]): modest effect | recruitment of Gi (GALR1 and its mutants; mutations of conserved TM3/TM5/TM6 residues in GALR1): impair | coupling efficiency between GALR2 and Gs (GALR2 [10]): significantly increased | galanin binding to mutant (GALR3 [11]): completely abolishes | reduction of galanin potency vs wild type (GALR2 or mutants; Q82^2.61 to alanine mutant of GALR2): ~100 fold | effect of mutation on galanin potency (GALR2 or mutants; Q263A mutant of GALR2 (ECL3)): little effect | reduction of galanin potency vs wild type (GALR2 or mutants; R184^5.35A mutant of GALR2): about 10 fold | reduction of galanin potency vs wild type (GALR2 or mutants; mutation of F264 (ECL3) in GALR2): ~100 fold | recruitment of Gq (GALR2 and its mutants): impair | reduction of galanin binding affinity (GALR1 [12]; H267^6.55 mutation of GALR1): more than 100 fold | galanin binding affinity of mutants (GALR1 [12]; mutations of F115 and H264 of GALR1): significantly reduce | galanin binding to mutant (GALR2 [13]; mutation of F264 in GALR2): completely abolishes | galanin binding affinity of mutants (GALR2 [13]; mutations of F106, H252, H253, I256, W260, and F261 of GALR2): significantly reduce | reduction of agonist (galanin) potency vs wild type (GALR1 or mutants; V274G mutant of GALR1 (ECL3), 1 μM forskolin): about 370 fold | effect of mutation on galanin potency (GALR1 or mutants; W188^ECL2 mutant of GALR1, compared with H176^ECL2 mutant of GALR2): distinct effect | reduction of galanin potency vs wild type (GALR1 or mutants; mutation of F275 (ECL3) in GALR1, 1 μM forskolin): ~100 fold | effect of mutation on galanin potency (GALR2 [14]): significantly decreased

B1: spexin: endogenous peptide spexin has A7M and G8L mutations in galanin (peptide, UniProt Q9BT56 27-116, looked up)
Spexin: APQRLLERRNWTPQAMLYLKGAQGRRFISDQSRRKDLSDRPLPERRSPNPQLLTIPEAATILLASLQKSPEDEEKNFDQTRFLEDSLLNW
modifications: Spexin
activation of GALR2 (GALR2 [15]): specifically activates GALR2 and GALR3 | activation of GALR3 (GALR3 [16]): specifically activates GALR2 and GALR3 | activation of GALRs (GALRs [9]): activate GALRs
